“And” between values parts separate entries of the source, which are not always exact repeats. Equal entries are not always repeated. Where two headings read alike, the source gives them in different places.
Tests used:
Type in all cases: cell-based
[1] = tested on: Salmonella spp. 017; assay: Ex.4 colony coloration, 5-bromo-3-indolyl nonanoate, DMSO/Tween 20, MacConkey; design: key to color: —: absence of colour or intensity
[2] = tested on: Salmonella enteritidis 006; assay: as above
[3] = tested on: Salmonella typhi 118; as to intensity of coloration: key: 0: no activity; 0.1: trace of coloration; 0.5: very pale coloration; 1: distinct coloration of low intensity; 2: clear coloration of medium intensity; 3: intense coloration; 4: very intense coloration
[4] = tested on: Salmonella arizonae 018; assay: Ex.4 colony coloration, 5-bromo-3-indolyl nonanoate, DMSO/Tween 20, MacConkey; as to intensity of coloration: key: 0: no activity; 0.1: trace of coloration; 0.5: very pale coloration; 1: distinct coloration of low intensity; 2: clear coloration of medium intensity; 3: intense coloration; 4: very intense coloration
[5] = tested on: Escherichia coli 002; assay: as above; design: key: —: absence of colour or intensity
[6] = tested on: Hafnia alvei 025; assay: as above; design: key: —: absence of colour or intensity
[7] = tested on: bacterial species exhibiting esterase activity; assay: Ex.4 overall conclusion, colony coloration; settings: experimental conditions of Example 4
Source text: This medium is then separated into eight portions.

In the case of `CCCCC(CC)COS(=O)(=O)[O-].[Na+]` (centres unmarked) [Tergitol 8], the color ([1]; 2 ml/l Tergitol 8, 24 h) is reported as “gray”, the intensity of coloration ([1]; 2 ml/l Tergitol 8, 24 h) is reported as 0.5 and the color ([1]; 2 ml/l Tergitol 8, 48 h) is reported as “gray”. The intensity of coloration ([1]; 2 ml/l Tergitol 8, 48 h) was 1.5, the color ([1]; 4 ml/l Tergitol 8, 24 h) was “gray” and the intensity of coloration ([1]; 4 ml/l Tergitol 8, 24 h) was 0.3. For the same compound, the color ([1]; 4 ml/l Tergitol 8, 48 h) was “gray”, the intensity of coloration ([1]; 4 ml/l Tergitol 8, 48 h) was 1 and the color ([1]; 8 ml/l Tergitol 8, 24 h) was “—”. For the same compound, the color ([1]; 8 ml/l Tergitol 8, 48 h) was “gray”, the intensity of coloration ([1]; 8 ml/l Tergitol 8, 48 h) was 0.5 and the color ([2]; 2 ml/l Tergitol 8, 24 h) was “gray”. For the same compound, the intensity of coloration ([2]; 2 ml/l Tergitol 8, 24 h) was 3, the color ([2]; 2 ml/l Tergitol 8, 48 h) was “gray” and the intensity of coloration ([2]; 2 ml/l Tergitol 8, 48 h) was 4. The color ([2]; 4 ml/l Tergitol 8, 24 h) was “gray”, the intensity of coloration ([2]; 4 ml/l Tergitol 8, 24 h) was 2.5 and the color ([2]; 4 ml/l Tergitol 8, 48 h) was “gray”. The intensity of coloration ([2]; 4 ml/l Tergitol 8, 48 h) was 3, the color ([2]; 8 ml/l Tergitol 8, 24 h) was “gray” and the intensity of coloration ([2]; 8 ml/l Tergitol 8, 24 h) was 3. For the same compound, the color ([2]; 8 ml/l Tergitol 8, 48 h) was “gray”, the intensity of coloration ([2]; 8 ml/l Tergitol 8, 48 h) was 3.5 and the color [3] was “gray”. The intensity of coloration [3] was 1 and 1.5 and 2, the color ([4]; 2 ml/l Tergitol 8, 24 h) was “gray” and the intensity of coloration ([4]; 2 ml/l Tergitol 8, 24 h) was 2. The color ([4]; 2 ml/l Tergitol 8, 48 h) was “gray”, the intensity of coloration ([4]; 2 ml/l Tergitol 8, 48 h) was 4 and the color ([4]; 4 ml/l Tergitol 8, 24 h) was “gray”. The intensity of coloration ([4]; 4 ml/l Tergitol 8, 24 h) was 2, the color ([4]; 4 ml/l Tergitol 8, 48 h) was “gray” and the intensity of coloration ([4]; 4 ml/l Tergitol 8, 48 h) was 2.5. The color ([4]; 8 ml/l Tergitol 8, 24 h) was “gray”, the intensity of coloration ([4]; 8 ml/l Tergitol 8, 24 h) was 2 and the color ([4]; 8 ml/l Tergitol 8, 48 h) was “gray”. The intensity of coloration ([4]; 8 ml/l Tergitol 8, 48 h) was 2.5, the color ([5]; 2 ml/l Tergitol 8, 24 h) was “—” and the color ([5]; 2 ml/l Tergitol 8, 48 h) was “—”. The color ([5]; 4 ml/l Tergitol 8, 24 h) was “—”, the color ([5]; 4 ml/l Tergitol 8, 48 h) was “—” and the color ([5]; 8 ml/l Tergitol 8, 24 h) was “—”. The color ([5]; 8 ml/l Tergitol 8, 48 h) was “—”, the color ([6]; 2 ml/l Tergitol 8, 24 h) was “—” and the color ([6]; 2 ml/l Tergitol 8, 48 h) was “—”. The color ([6]; 4 ml/l Tergitol 8, 24 h) was “—”, the color ([6]; 4 ml/l Tergitol 8, 48 h) was “—” and the color ([6]; 8 ml/l Tergitol 8, 24 h) was “—”. For the same compound, the color ([6]; 8 ml/l Tergitol 8, 48 h) was “—” and the “effect on the esterase activity compared with Tergitol 4” value [7] was “not as pronounced as that observed with Tergitol 4”.
“polyethylene glycol mono-p-isooctylphenyl ether [Triton X100]” was tested, and the color ([1]; 8 ml/l Triton X100, 24 h) was “gray”, the intensity of coloration ([1]; 8 ml/l Triton X100, 24 h) was 1 and the color ([1]; 8 ml/l Triton X100, 48 h) was “gray”. For the same compound, the intensity of coloration ([1]; 8 ml/l Triton X100, 48 h) was 3, the color ([1]; 16 ml/l Triton X100, 24 h) was “gray” and the intensity of coloration ([1]; 16 ml/l Triton X100, 24 h) was 0.5. The color ([1]; 16 ml/l Triton X100, 48 h) was “gray”, the intensity of coloration ([1]; 16 ml/l Triton X100, 48 h) was 2 and the color ([1]; 32 ml/l Triton X100, 24 h) was “—”. The color ([1]; 32 ml/l Triton X100, 48 h) was “gray”, the intensity of coloration ([1]; 32 ml/l Triton X100, 48 h) was 0.5 and the color ([2]; 8 ml/l Triton X100, 24 h) was “gray”. The intensity of coloration ([2]; 8 ml/l Triton X100, 24 h) was 2, the color ([2]; 8 ml/l Triton X100, 48 h) was “gray” and the intensity of coloration ([2]; 8 ml/l Triton X100, 48 h) was 2.5. For the same compound, the color ([2]; 16 ml/l Triton X100, 24 h) was “gray”, the intensity of coloration ([2]; 16 ml/l Triton X100, 24 h) was 2 and the color ([2]; 16 ml/l Triton X100, 48 h) was “gray”. For the same compound, the intensity of coloration ([2]; 16 ml/l Triton X100, 48 h) was 2.5, the color ([2]; 32 ml/l Triton X100, 24 h) was “gray” and the intensity of coloration ([2]; 32 ml/l Triton X100, 24 h) was 1. The color ([2]; 32 ml/l Triton X100, 48 h) was “gray”, the intensity of coloration ([2]; 32 ml/l Triton X100, 48 h) was 1.5 and the color ([3]; 8 ml/l Triton X100, 24 h) was “gray”. The intensity of coloration ([3]; 8 ml/l Triton X100, 24 h) was 1, the color ([3]; 8 ml/l Triton X100, 48 h) was “gray” and the intensity of coloration ([3]; 8 ml/l Triton X100, 48 h) was 1. The color ([3]; 16 ml/l Triton X100, 24 h) was “gray”, the intensity of coloration ([3]; 16 ml/l Triton X100, 24 h) was 1 and the color ([3]; 16 ml/l Triton X100, 48 h) was “gray”. The intensity of coloration ([3]; 16 ml/l Triton X100, 48 h) was 1, the color ([3]; 32 ml/l Triton X100, 24 h) was “gray” and the intensity of coloration ([3]; 32 ml/l Triton X100, 24 h) was 0.5. The color ([3]; 32 ml/l Triton X100, 48 h) was “gray”, the intensity of coloration ([3]; 32 ml/l Triton X100, 48 h) was 0.5 and the color ([4]; 8 ml/l Triton X100, 24 h) was “gray”. For the same compound, the intensity of coloration ([4]; 8 ml/l Triton X100, 24 h) was 2, the color ([4]; 8 ml/l Triton X100, 48 h) was “gray” and the intensity of coloration ([4]; 8 ml/l Triton X100, 48 h) was 2.5. For the same compound, the color ([4]; 16 ml/l Triton X100, 24 h) was “gray”, the intensity of coloration ([4]; 16 ml/l Triton X100, 24 h) was 2 and the color ([4]; 16 ml/l Triton X100, 48 h) was “gray”. The intensity of coloration ([4]; 16 ml/l Triton X100, 48 h) was 2.5, the color ([4]; 32 ml/l Triton X100, 24 h) was “gray” and the intensity of coloration ([4]; 32 ml/l Triton X100, 24 h) was 1. The color ([4]; 32 ml/l Triton X100, 48 h) was “gray”, the intensity of coloration ([4]; 32 ml/l Triton X100, 48 h) was 2 and the color ([5]; 8 ml/l Triton X100, 24 h) was “—”. For the same compound, the color ([5]; 8 ml/l Triton X100, 48 h) was “—”, the color ([5]; 16 ml/l Triton X100, 24 h) was “—” and the color ([5]; 16 ml/l Triton X100, 48 h) was “—”. For the same compound, the color ([5]; 32 ml/l Triton X100, 24 h) was “—”, the color ([5]; 32 ml/l Triton X100, 48 h) was “—” and the color ([6]; 8 ml/l Triton X100, 24 h) was “—”. For the same compound, the color ([6]; 8 ml/l Triton X100, 48 h) was “—”, the color ([6]; 16 ml/l Triton X100, 24 h) was “—” and the color ([6]; 16 ml/l Triton X100, 48 h) was “—”. The color ([6]; 32 ml/l Triton X100, 24 h) was “—”, the color ([6]; 32 ml/l Triton X100, 48 h) was “—” and the “effect on the esterase activity compared with Tergitol 4” value [7] was “not as pronounced as that observed with Tergitol 4”.
